Measured values taken from paper PMC4077311, “A Huge PVDF Adsorption Difference Between Resveratrol and ε-Viniferin Allows to Quantitatively Purify Them and to Assess Their Anti-Tyrosinase Property” (Chromatographia, 2014).

Biological target: Mushroom tyrosinase (Agaricus bisporus, UniProt C7FF04)
Experiment: Tyrosinase L-DOPA oxidase inhibition activity
Experimental: Then, 40 μL L-DOPA (2.5 mM) and 80 μL phosphate buffer were added to the solution. Optical density (OD) of each assay, relative to the control, was measured at 492 nm by using a microplate reader (Tecan® Infinite M200 spectrophotometer).
Results expression: Inhibition of enzyme activity by each sample is expressed as % inhibition compared to the control and represented by the following equation: [1 − (ODsample × ODcontrol^−1)] × 100.

Chain of Mushroom tyrosinase (G1K3P4 entry or part of it): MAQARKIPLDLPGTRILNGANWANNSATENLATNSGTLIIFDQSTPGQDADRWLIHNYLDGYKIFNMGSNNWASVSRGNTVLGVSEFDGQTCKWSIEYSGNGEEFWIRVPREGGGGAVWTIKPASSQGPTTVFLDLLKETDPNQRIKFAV
Chain of Mushroom tyrosinase (C7FF04 1-392): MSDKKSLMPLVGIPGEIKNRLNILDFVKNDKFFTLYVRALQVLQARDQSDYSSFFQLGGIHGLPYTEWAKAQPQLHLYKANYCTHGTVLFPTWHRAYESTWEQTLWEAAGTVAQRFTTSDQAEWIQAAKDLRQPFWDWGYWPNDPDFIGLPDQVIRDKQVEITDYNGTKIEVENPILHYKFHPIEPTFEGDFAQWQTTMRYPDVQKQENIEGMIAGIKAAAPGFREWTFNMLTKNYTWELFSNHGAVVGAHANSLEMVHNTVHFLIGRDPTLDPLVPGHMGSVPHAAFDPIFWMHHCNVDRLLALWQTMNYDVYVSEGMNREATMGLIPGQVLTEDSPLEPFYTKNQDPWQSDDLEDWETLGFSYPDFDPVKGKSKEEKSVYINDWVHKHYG

Row | SMILES | Tyrosinase inhibitory activity in words
1 | Oc1ccc(/C=C/c2cc(O)cc(O)c2)cc1 [trans-Resveratrol 1, (E)-5-(4-hydroxystyryl)benzene-1,3-diol] | moderate inhibitory activity
2 | Oc1ccc(C=Cc2cc(O)cc3c2[C@H](c2cc(O)cc(O)c2)[C@@H](c2ccc(O)cc2)O3)cc1 [trans-ε-Viniferin 2, 5-[(2S, 3S)-6-hydroxy-2-(4-hydroxyphenyl)-4-(4-hydroxystyryl)-2,3-dihydrobenzofuran-3-yl]benzene-1,3-diol] | the most active tyrosinase inhibitor ever tested by us
